Counter-ions that a name gives are not always drawn. Like-named read-outs stand apart in the source and are kept apart here.
Key:
[1] = design: method as in earlier work; conditions: cited from earlier work
[2] = experimental determination of log Pm/w using MLC; format: physicochemical; conditions: 0.18 M SDS, 0.3% TEA, pH 6, column 40°C
Method: (§1) Three micelle-based mobile phases were developed for the separation of this mixture. In all three cases, the separation was carried out on a Prontosil Kromaplus C18 column (250 × 4.6 mm) of particle size 5 µm, Leonberg, Germany, which was kept at 40°C. […] Separation of the three drugs was accomplished using 254 nm as a detection wavelength, adopting a flow rate of 1.5 ml min^−1.
(§2) Different actual SDS concentrations for each mobile phase (after subtracting the CMC of SDS at 40°C) were plotted versus the inverse of the capacity factor for each drug, using the optimized chromatographic conditions for MLC, HMLC and MELC, where pH was adjusted to 6, and the column temperature was kept at 40°C for the three separation methods.

[3] = design: method as in earlier work; conditions: cited from earlier work; remark: listed apart in the source
[4] = experimental determination of log Pm/w using HMLC; format: physicochemical; conditions: for experimental log Pm/w, column temperature 25°C: pH 6, 25°C; for experimental log Pm/w, column temperature 30°C: pH 6, 30°C; for experimental log Pm/w, column temperature 35°C: pH 6, 35°C
[5] = experimental determination of log Pm/w using MELC; format: physicochemical; conditions: 0.18 M SDS, 10% acetonitrile, 1% octane, 0.3% TEA, pH 6, column 40°C
Method: as §1, §2

[6] = HMLC, pH 3, 40°C, read-out: log P (experimental log Pm/w) pH 3
[7] = HMLC, pH 4, 40°C, read-out: log P (experimental log Pm/w) pH 4

CCCN[C@H]1CCc2nc(N)sc2C1 (racemic) [PRM, (RS)-4,5,6,7-tetrahydro-N-6-propyl-2,6-benzothiazolediamine dihydrochloride monohydrate]
reported log P [1]: 2.34 | experimental log Pm/w MLC [2]: 0.9385 | pka [3]: 10.5 | experimental log Pm/w, column temperature 25°C ([4]; HMLC): 1.1714 | experimental log Pm/w, column temperature 30°C ([4]; HMLC): 2.197 | experimental log Pm/w, column temperature 35°C ([4]; HMLC): 2.228 | experimental log Pm/w MELC [5]: 1.316

c1cnc(N2CCN(Cc3ccc4c(c3)OCO4)CC2)nc1 [PRB, 2-[4-(1,3-benzodioxol-5-ylmethyl)piperazin-1-yl] pyrimidine]
reported log P [1]: 1.8 | experimental log Pm/w MLC [2]: 0.7334 | pka [3]: 6.95 | experimental log Pm/w HMLC ([4]; 0.18 M SDS, 10% acetonitrile, 0.3% TEA, pH 6, column 40°C): 1.648 | chromatographic logP [4, 6]: 0.86 | chromatographic logP [4, 7]: 1.09 | chromatographic logP ([4]; HMLC, pH 5, 40°C, read-out: log P (experimental log Pm/w) pH 5): 1.1 | experimental log Pm/w, column temperature 25°C ([4]; HMLC): 0.976 | experimental log Pm/w, column temperature 35°C ([4]; HMLC): 1.208 | experimental log Pm/w, column temperature 40°C ([4]; HMLC, pH 6, 40°C): 1.648 | chromatographic logP ([4]; HMLC, pH 6, 40°C, read-out: log P (experimental log Pm/w) pH 6): 1.65 | experimental log Pm/w MELC [5]: 1.491

O=C1CCc2ccc(OCCCCN3CCN(c4cccc(Cl)c4Cl)CC3)cc2N1 [ARP, 7-[4-[4-(2,3-dichlorophenyl)piperazin-1-yl]butoxy]-3,4-dihydro-1H-quinolin-2-one]
experimental log Pm/w MLC [2]: 2.182 | pka [3]: 10 | chromatographic logP [4, 6]: 4.23 | chromatographic logP [4, 7]: 4.52 | experimental log Pm/w, column temperature 25°C ([4]; HMLC): 3.12 | experimental log Pm/w, column temperature 30°C ([4]; HMLC): 3.66 | experimental log Pm/w MELC [5]: 2.275

Source: article PMC8150020, “Studying the suitability of hybrid micelle liquid chromatography for estimating the lipophilicity of some partial dopamine agonists used to attain the reward circuit” (Royal Society Open Science, 2021)
